We go through 18 compounds from patent publication US8436027B2, “Azole compounds used as tuberculostatic and leishmanicide agents” (priority 2005, dated 2013).

Usually MIC stands for the lowest concentration that inhibits growth of the organism.

The test system of assay [1] is Mycobacterium tuberculosis H37Rv (ATCC-27294). Description: MIC by MABA (Microplate Alamar Blue Assay), antimicrobial activity. The note with it: M. tuberculosis H37Rv (ATCC 27294); for MIC: MABA, 5 days incubation + 24 h Alamar Blue; for Inhibition (%): concentration not given. It is filed as cell-based. A general note: The colour change of resazurin is a common sign of viable cells or microbes.

In assay [2] the test system is promastigote forms of Leishmania amazonensis. Description: Leishmanicide evaluation in vitro, live parasites counted by fluorescence. It is filed as cell-based. The note with it: for leishmanicide activity (inhibition): Table 6; for Percentage of parasitic inhibition: L. amazonensis promastigotes. The procedure: The evaluation of the Leishmanicide activity of the type I and II 1,2,3-triazole derivatives was made through in vitro essays against promastigote forms of Leishmania amazonensis, and after the incubation with compounds, live parasites are counted by fluorescence, thus obtaining as a result, the percentage of inhibition of the compounds evaluated.
Essays were performed in triplicate using pentamidine as a positive pattern with a 160 μg/mL concentration.
The evaluation of the leishmanicide activity of type I (Formula XII) and II (Formula XIII) imidazole derivatives was performed through in vitro essays against promastigote forms of Leishmania amazonensis, and after the incubation with compounds, live parasites are counted by fluorescence, thus obtaining as a result the inhibition percentage of the evaluated compounds.
Essays were performed in triplicate using pentamidine as a positive pattern with a 160 μg/mL concentration, determining which compounds evaluated inhibited the parasite in lower concentrations and the percentage higher than the pattern. Table 6 lists the results obtained in the leishmanicide evaluation of derivatives 140a 148a 146a, 149a.

For another assay, the system named is M. tuberculosis. The following applies: background statement; cited from earlier work.

Where “and” joins values, the source holds several entries; their conditions need not be identical. Equal entries are not always repeated.

`O=Cc1cn(-c2ccc(Br)cc2)nn1` [114b, 4-carboxaldehyde-1-(4-bromophenyl)-1H-1,2,3-triazole]: in assay [1], the MIC is 5.0 mg/L and the “Inhibition (%)” value turned out to be 100%. With `COc1ccc(-n2cc(C=O)nn2)cc1OC` [114m, 4-carboxaldehyde 1-(3,4-dimethoxyphenyl)-1H-1,2,3-triazole], the MIC in assay [1] was 80.0 mg/L. With `N=C(N)c1ccc(OCCCCCOc2ccc(C(=N)N)cc2)cc1` [pentamidine], the “leishmanicide activity (inhibition)” value in assay [2] (Conc. 5 μ/mL), in assay [2] (Conc. 10 μ/mL), in assay [2] (Conc. 20 μ/mL) and in assay [2] (Conc. 80 μ/mL) was “No inhibition” each time. Moreover, the “Percentage of parasitic inhibition” value in assay [2] (Concentration 5 μg/mL), in assay [2] (Concentration 10 μg/mL), in assay [2] (Concentration 20 μg/mL) and in assay [2] (Concentration 80 μg/mL) was “No inhibition” each time. Take `COc1ccccc1-n1cc(C=O)nn1` [114l, 4-carboxaldehyde-1-(2-methoxyphenyl)-1H-1,2,3-triazole]: in assay [1], the minimum inhibitory concentration (MIC) worked out at 40.0 mg/L and the “Inhibition (%)” value amounted to 94%. As to `FC(F)c1cn(-c2ccc(Cl)cc2)nn1` [121a, 1-(4-chlorophenyl)-4-difluoromethyl-1H-1,2,3-triazole], the MIC in assay [1] was 40.0 mg/L.

Take `O=Cc1cn(-c2ccc(Cl)cc2)nn1` [114a, 4-carboxaldehyde-1-(4-chlorophenyl)-1H-1,2,3-triazole]: the MIC in assay [1] was 5 mg/L and 5.0 mg/L. The same measure, in the same setting: next, `O=[N+]([O-])c1ccc(-n2cc(C(F)F)nn2)cc1` [121j, 1-(4-nitrophenyl)-4-difluoromethyl-1H-1,2,3-triazole]: 40.0 mg/L. On to `NNC(=O)c1ccncc1` [INH, isoniazide], for which the “minimum inhibitory concentration (MIC)” value with M. tuberculosis was 0.02 to 0.06 mg/L.

As to `Brc1ccc(/N=C/c2cn(-c3ccc(Br)cc3)nn2)cc1` [compound 120, (E)-4-bromo-N-((1-(4-bromophenyl)-1H-1,2,3-triazole-4-il)methylene)benzenamine], the MIC in assay [1] worked out at 20 mg/L. With `O=Cc1cn(-c2ccc([N+](=O)[O-])cc2)nn1` [114j, 4-carboxaldehyde-1-(4-nitrophenyl)-1H-1,2,3-triazole], in assay [1], the MIC was 20.0 mg/L. As for `Cc1ccc(-n2cc(C=O)nn2)cc1` [114c, 4-carboxaldehyde-1-(4-methylphenyl)-1H-1,2,3-triazole], in assay [1], the MIC was 2.5 mg/L and the “Inhibition (%)” value came out at 100%. Regarding `O=Cc1cn(-c2cc(Cl)cc(Cl)c2)nn1` [114g, 4-carboxaldehyde-1-(3,5-dichlorophenyl)-1H-1,2,3-triazole], the minimal inhibitory concentration (MIC) in assay [1] is 2.5 mg/L. With `COc1ccc(OC)c(-n2cc(C=O)nn2)c1` [114e, 4-carboxaldehyde-1-(2,5-dimethoxyphenyl)-1H-1,2,3-triazole], in assay [1], the MIC came to 80.0 mg/L and the “Inhibition (%)” value is 59%. With `N#Cc1cccc(-n2cc(C=O)nn2)c1` [114h, 4-carboxaldehyde-1-(3-cyanophenyl)-1H-1,2,3-triazole], the MIC in assay [1] is 20.0 mg/L. Take `COc1ccc(-n2cc(C=O)nn2)cc1` [114d, 4-carboxaldehyde-1-(4-methoxyphenyl)-1H-1,2,3-triazole]: in assay [1], the MIC came to 10.0 mg/L and the “Inhibition (%)” value amounted to 100%. Consider `Clc1ccc(/N=C/c2cn(-c3ccc(Cl)cc3)nn2)cc1` [compound 119, (E)-4-chloride-N-((1-(4-chlorophenyl)-1H-1,2,3-triazole-4-il)methylene)benzenamine], for which, in assay [1], the MIC was determined as 40 mg/L.

With `N#Cc1ccc(-n2cc(C=O)nn2)cc1` [114i, 4-carboxaldehyde-1-(4-cyanophenyl)-1H-1,2,3-triazole], the MIC in assay [1] amounted to 5.0 mg/L.

Consider `O=Cc1cn(-c2cccc(Cl)c2)nn1` [114f, 4-carboxaldehyde-1-(3-chlorophenyl)-1H-1,2,3-triazole], for which the “Percentage of parasitic inhibition” value in assay [2] (Concentration 20 μg/mL) is reported as “No inhibition”.
